Values quoted from earlier work in US20230270735A1, “TOPICAL FORMULATION” (INCANTHERA (R&D) LTD, priority 2020, published 2023).
Where two headings read alike, the source gives them in different places.

Experiments:
actinic keratoses (AK) = settings: 4 months
[1] = not given; remark: listed apart in the source
PARP-1 = PARP-1 (Homo sapiens, UniProt P09874); settings: at a concentration of 50 μmol L^−1, in vitro
Chain of PARP-1 (P09874 whole entry, species assumed): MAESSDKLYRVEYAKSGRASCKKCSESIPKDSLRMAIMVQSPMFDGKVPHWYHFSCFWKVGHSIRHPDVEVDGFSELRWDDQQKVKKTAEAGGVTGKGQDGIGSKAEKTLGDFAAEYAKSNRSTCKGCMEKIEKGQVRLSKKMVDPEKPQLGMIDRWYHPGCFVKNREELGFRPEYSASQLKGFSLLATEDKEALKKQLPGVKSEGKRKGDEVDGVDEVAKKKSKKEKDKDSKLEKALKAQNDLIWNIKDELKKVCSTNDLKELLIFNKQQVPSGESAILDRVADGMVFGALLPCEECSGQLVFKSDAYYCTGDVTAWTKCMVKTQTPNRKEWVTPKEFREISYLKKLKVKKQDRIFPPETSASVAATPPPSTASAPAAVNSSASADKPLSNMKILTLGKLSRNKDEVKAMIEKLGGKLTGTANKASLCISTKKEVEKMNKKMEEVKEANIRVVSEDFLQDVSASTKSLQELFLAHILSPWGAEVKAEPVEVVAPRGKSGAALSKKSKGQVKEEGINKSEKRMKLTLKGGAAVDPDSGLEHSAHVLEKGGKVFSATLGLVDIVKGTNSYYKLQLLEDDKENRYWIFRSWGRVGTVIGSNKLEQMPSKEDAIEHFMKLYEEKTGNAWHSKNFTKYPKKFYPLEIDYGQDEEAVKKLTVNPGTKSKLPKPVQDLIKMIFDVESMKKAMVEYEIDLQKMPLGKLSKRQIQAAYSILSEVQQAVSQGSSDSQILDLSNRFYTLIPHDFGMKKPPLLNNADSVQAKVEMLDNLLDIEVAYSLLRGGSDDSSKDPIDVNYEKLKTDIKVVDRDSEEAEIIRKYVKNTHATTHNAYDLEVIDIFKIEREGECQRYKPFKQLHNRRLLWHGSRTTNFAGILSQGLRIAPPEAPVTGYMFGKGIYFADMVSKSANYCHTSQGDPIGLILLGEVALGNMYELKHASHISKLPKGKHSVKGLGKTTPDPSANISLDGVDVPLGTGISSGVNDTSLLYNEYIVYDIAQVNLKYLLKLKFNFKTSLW

## NC(=O)c1cccnc1 [NAM, pyridine-3-carboxamide]
1 g (~0.5 g/M^2) oral dose, healthy volunteers
  range of peak plasma concentrations: 81 to 158 µmol/L
Oral 500 mg, extrapolated by Malesu et al. (22) from Stratford data
  peak plasma concentrations: ~80 µmol/L
Actinic keratoses (AK); study 1, oral 500 mg twice daily
  reduction in AK versus baseline: 35%
Actinic keratoses (AK); study 2, oral 500 mg once daily
  reduction in AK versus baseline: 29%
Nonmelanoma skin cancers; oral 500 mg twice a day, 12 months
  rate of new nonmelanoma skin cancers lowered compared with placebo: 23%
Nonmelanoma skin cancers; oral NAM group
  CD4^+ helper T cells and cytotoxic CD8^+ T cells in the tumour microenvironment of melanomas, compared with placebo: significant increase
Nonmelanoma skin cancers; oral doses 500-1,000 mg/day
  systemic adverse effects: without significant systemic adverse effects
[1]
  Log P (octanol/water): −0.4
PARP-1
  inhibition of PARP-1: 60%
